Measured values reported in patent publication US4962200A, “Nitrogen-containing compound” (Mitsui Petrochemical Industries, Ltd., priority 1987, dated 1990).

tested on: formation of peroxide lipids (rat brain homogenate); test: activity of inhibiting formation of peroxide lipids (TBA assay, rat brain homogenate supernatant); assay type: biochemical, rat (Wistar); conditions: final concentration 10^-4 M, pH 7.4, 37° C., 30 minutes, malondialdehyde by TBA assay vs control, 100 µM
Protocol: With respect to the compounds of the present invention, the activity of inhibiting formation of peroxide lipids was tested according to the following procedures.
Male rats of the Wistar system having a body weight of 200 to 250 g were used. The rat brain was extracted by beheading and homogenized by 50 mM phosphate buffer solution (pH 7.4)(PBS), and centrifugal separation was conducted for 15 minutes under 1000 G. The supernatant was frozen at -30° C. and stored, and when the test was carried out, the frozen supernatant was thawed in running water and diluted with PBS so that the volume was trebled, whereby a living body sample was prepared.
Two samples were formed by adding 10 μl of a solution of the test compound (the final concentration was 10^-4 M) to 990 μl of the living body sample. One sample was incubated at 37° C. for 30 minutes and 0.2 ml of a 35% solution of perchloric acid was added to stop the reaction. The other sample was not incubated but the solution of perchloric acid was immediately added to stop the reaction. Both the reaction liquids were subjected to centrifugal separation at 3000 rpm for 15 minutes. With respect to each sample, by using 0.5 ml of the supernatant, the amount of the peroxide lipid was determined according to the TBA assay [Okawa et al., Anal. Biochem., 95. 351 (1979)], and the difference between both the measured values was determined as the amount of malondialdehyde (MDS)(the unit: nmole/mg protein). The peroxide lipid inhibition ratio was calculated from this MDA amount (A) and the control value (B) (the MDA amount obtained when the test compound was not added) according to the following formula: [formula]

Row | Structure (SMILES) | Inhibition Ratio (%) (peroxide lipid inhibition ratio)
1 | Cn1cncc1CN1CCCc2ccccc21 [Compound 1] | 99.0%
2 | Cc1nc(CN2CCCc3ccccc32)cs1 [Compound 3] | 88.7%
3 | Cc1nc(CN2CCc3ccccc32)cs1 [Compound 4] | 84.6%
4 | c1csc(CN2CCCc3ccccc32)c1 [Compound 5] | 93.6%
5 | c1csc(CN2CCc3ccccc32)c1 [Compound 6] | 95.4%
6 | CN(C)C(=O)n1cnc(CN2c3ccccc3CCc3ccccc32)c1 [Compound 9, 1-(N,N-dimethylcarbamoyl)-4-(10,11-dihydro-5H-dibenzo[b,f]azepin-5-ylmethyl)imidazole] | 94.0%
7 | c1coc(CN2CCc3ccccc32)c1 [Compound 10] | 87.0%
8 | c1coc(CN2CCOc3ccccc32)c1 [Compound 11, 4-(2-furyl)methyl-3,4-dihydro-2H-benzooxazine] | 56.0%
9 | Cc1ncoc1CN1CCCc2ccccc21 [Compound 12] | 97.8%
10 | c1coc(CCCN2CCCc3ccccc32)c1 [Compound 13] | 90.5%
11 | c1ccc(CN2CCCc3ccccc32)nc1 [Compound 14] | 100.0%
12 | CCOC(=O)c1cnc(C)nc1CN1CCCc2ccccc21 [Compound 15] | 100.0%
13 | CCOC(=O)c1cnc(-c2ccccc2)nc1CN1CCCc2ccccc21 [Compound 16] | 100.0%
14 | CCOC(=O)c1cncnc1CN1CCCc2ccccc21 [Compound 17] | 100.0%
15 | O=C1C=C(OCCN2CCCc3ccccc32)C(=O)c2ccccc21 [Compound 18] | 97.9%
16 | c1coc(CN2CCSc3ccccc32)c1 [Compound 19, 4-(2-furyl)methyl-3,4-dihydro-2H-1,4-benzothiazine] | 80.9%
17 | Cc1ccc2c(c1)CCCN2Cc1ccco1 [Compound 20] | 85.1%
18 | Clc1ccc2c(c1)CCCN2Cc1ccco1 [Compound 21] | 87.2%
